These results are taken from patent US12195482B1 (Arcus Biosciences, Inc., priority 2022, dated 2025).

Usually IC50 stands for the concentration at which inhibition is half-maximal.

The target of one assay is T1, recombinant human MER (Homo sapiens, UniProt Q12866).
T1 construct: purchased Invitrogen
T1 sequence (Q12866 21-999): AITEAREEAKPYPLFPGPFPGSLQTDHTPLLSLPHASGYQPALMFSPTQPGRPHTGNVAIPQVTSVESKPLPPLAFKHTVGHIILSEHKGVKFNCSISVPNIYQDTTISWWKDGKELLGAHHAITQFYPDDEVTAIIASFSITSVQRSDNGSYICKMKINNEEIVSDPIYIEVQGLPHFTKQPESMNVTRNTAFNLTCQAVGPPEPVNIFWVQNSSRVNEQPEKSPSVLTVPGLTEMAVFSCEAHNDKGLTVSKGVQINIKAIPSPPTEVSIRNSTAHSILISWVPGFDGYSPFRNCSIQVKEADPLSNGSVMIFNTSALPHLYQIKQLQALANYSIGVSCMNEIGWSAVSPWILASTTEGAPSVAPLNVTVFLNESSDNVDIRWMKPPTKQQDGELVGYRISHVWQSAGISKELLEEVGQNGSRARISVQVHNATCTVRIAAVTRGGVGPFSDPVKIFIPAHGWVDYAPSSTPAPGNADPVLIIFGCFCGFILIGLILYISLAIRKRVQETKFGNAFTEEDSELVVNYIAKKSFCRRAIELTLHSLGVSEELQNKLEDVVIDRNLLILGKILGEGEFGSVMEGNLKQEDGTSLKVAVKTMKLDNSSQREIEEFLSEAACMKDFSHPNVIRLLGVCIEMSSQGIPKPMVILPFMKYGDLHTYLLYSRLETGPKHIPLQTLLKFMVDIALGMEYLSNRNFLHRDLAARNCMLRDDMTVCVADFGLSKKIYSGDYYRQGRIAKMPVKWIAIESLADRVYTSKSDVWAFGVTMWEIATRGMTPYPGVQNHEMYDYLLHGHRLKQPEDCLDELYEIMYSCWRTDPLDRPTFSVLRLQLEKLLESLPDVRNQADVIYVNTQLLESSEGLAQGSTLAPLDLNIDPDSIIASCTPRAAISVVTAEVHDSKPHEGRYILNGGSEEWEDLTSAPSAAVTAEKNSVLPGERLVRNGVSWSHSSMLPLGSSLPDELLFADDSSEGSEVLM
In words: Biochemical potency, HTRF KinEASE-TK kinase assay. The conditions noted are these: 1 nM MER, 700 μM ATP. Here is the method: (§1) Measurement of Biochemical Compound Potency of Axl Inhibitors
(§2) Purified recombinant human AXL, TYRO3 and MER proteins were purchased from Invitrogen™. 10 nM AXL, 2 nM TYRO3 or MER were incubated with varying concentrations of compounds in 50 mM HEPES, pH 7.4, 10 mM MgCl2, 0.01% BSA, 1 mM DTT and 2% DMSO in a total volume of 20 μl in a 384-well microplate (Corning™ #3640) at RT for 1 h. The AXL, TYRO3 and MER enzymatic reaction was initiated by transferring 10 μl of enzyme and compound mixture into 10 μl of 1.6 μM TK Substrate-biotin (HTRF® KinEASE-TK kit, Cisbio) and 1400 μM ATP pre-incubated in 50 mM HEPES, pH 7.4, 10 mM MgCl2, 0.01% BSA, 1 mM DTT in a 384-well microplate (Corning™ #3640) at RT, giving the final reaction conditions: 5 nM AXL, 1 nM TYRO3 or MER, 800 nM TK Substrate-biotin and 700 μM ATP in 50 mM HEPES, pH 7.4, 10 mM MgCl2, 0.01% BSA, 1 mM DTT and 1% DMSO with varying concentrations of compounds. Following 2 h incubation at RT, the AXL, TYRO3 and MER enzymatic reaction was stopped by transfer of 10 μl of reaction into 10 μl of detection mix (400 nM Streptavidin-XL665, 200-fold dilution TK Antibody-Cryptate and detection buffer, HTRF® KinEASE-TK kit, Cisbio) in a white 384-well microplate (Perkin Elmer, OptiPlate 384). After 1 h incubation at RT, the plate was put into a plate reader (Evision) to read at 665/620 nm (acceptor/donor) for HTRF. The value of the DMSO blank (MIN inhibition=100% activity) was used as a negative control. The positive control was established by adding 5 μl of enzyme and DMSO mixture into 10 μl of detection mix followed by addition of 5 μl of TK Substrate-biotin and ATP mixture (MAX inhibition=0% activity). To calculate the percent activity, Equation 1 was used. Ratio665/620 is the value at a given compound concentration: […]
Background: In TR-FRET formats the signal depends on donor and acceptor labels being close together.

The target of the next assay is T2, recombinant human TYRO3 (Homo sapiens, UniProt Q06418).
T2 construct: purchased Invitrogen
T2 sequence (Q06418 41-890): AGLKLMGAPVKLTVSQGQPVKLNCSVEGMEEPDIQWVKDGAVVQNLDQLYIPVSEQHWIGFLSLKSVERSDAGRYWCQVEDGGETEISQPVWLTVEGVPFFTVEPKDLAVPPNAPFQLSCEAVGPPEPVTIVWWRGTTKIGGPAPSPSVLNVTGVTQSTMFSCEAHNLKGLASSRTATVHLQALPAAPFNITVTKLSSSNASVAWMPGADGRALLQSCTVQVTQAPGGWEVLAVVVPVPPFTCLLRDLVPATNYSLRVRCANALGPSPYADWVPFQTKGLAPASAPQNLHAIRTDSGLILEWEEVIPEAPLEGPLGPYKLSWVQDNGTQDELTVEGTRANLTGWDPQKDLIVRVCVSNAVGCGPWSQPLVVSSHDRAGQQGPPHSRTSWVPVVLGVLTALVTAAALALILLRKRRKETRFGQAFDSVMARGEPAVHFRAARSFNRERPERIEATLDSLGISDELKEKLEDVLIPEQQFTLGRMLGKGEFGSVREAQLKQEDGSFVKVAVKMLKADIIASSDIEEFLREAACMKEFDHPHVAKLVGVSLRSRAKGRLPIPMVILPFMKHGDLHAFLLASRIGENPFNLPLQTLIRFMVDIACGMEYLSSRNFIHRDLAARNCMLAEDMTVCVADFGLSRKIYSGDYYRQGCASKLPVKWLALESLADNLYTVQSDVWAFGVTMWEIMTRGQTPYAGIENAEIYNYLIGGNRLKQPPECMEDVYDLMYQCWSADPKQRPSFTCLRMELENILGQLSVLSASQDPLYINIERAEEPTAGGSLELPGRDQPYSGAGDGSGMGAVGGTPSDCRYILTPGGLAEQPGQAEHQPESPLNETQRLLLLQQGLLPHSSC
As to the kind of experiment: Biochemical potency, HTRF KinEASE-TK kinase assay. The conditions noted are these: 1 nM TYRO3, 700 μM ATP. Here is the method:
as §1, §2

As for `O=C(c1cccnc1-c1ccc(-c2n[nH]c3ncc(-c4ccc5c(c4)CC[C@@H](N4C6COCC4C6)CC5)cc23)cc1)N1CCCC1` [Example 4, 6-[(7S)-2-(3-{4-[3-(Pyrrolidine-1-carbonyl)pyridin-2-yl]phenyl}-1H-pyrazolo[3,4-b]pyridin-5-yl)-6,7,8,9-tetrahydro-5H-benzo[7]annulen-7-yl]-3-oxa-6-azabicyclo[3.1.1]heptane], the IC50 on recombinant human MER and on recombinant human TYRO3 was 100 to 1000 nM in each case.

As to `c1cnc(-c2ccc(-c3c[nH]c4ncc(-c5ccc6c(c5)CC[C@@H](N5C7COCC5C7)CC6)cc34)cc2)c(N2CCOCC2)c1` [Example 5, 6-[(7S)-2-(3-{4-[3-(Morpholin-4-yl)pyridin-2-yl]phenyl}-1H-pyrrolo[2,3-b]pyridin-5-yl)-6,7,8,9-tetrahydro-5H-benzo[7]annulen-7-yl]-3-oxa-6-azabicyclo[3.1.1]heptane], the IC50 on recombinant human MER is 100 to 1000 nM; on recombinant human TYRO3 it was less than 100 nM.

`CN(C)S(=O)(=O)c1cccnc1-c1ccc(-c2c[nH]c3ncc(-c4ccc5c(c4)CC[C@@H](N4C6COCC4C6)CC5)cc23)cc1` [Example 6, N,N-Dimethyl-2-(4-{5-[(7S)-7-{3-oxa-6-azabicyclo[3.1.1]heptan-6-yl}-6,7,8,9-tetrahydro-5H-benzo[7]annulen-2-yl]-1H-pyrrolo[2,3-b]pyridin-3-yl}phenyl)pyridine-3-sulfonamide]: the 50% inhibitory concentration (IC50) at recombinant human MER and at recombinant human TYRO3 was 100 to 1000 nM each time.

As to `O=C1CCCN1c1cccnc1-c1ccc(-c2c[nH]c3ncc(-c4ccc5c(c4)CC[C@@H](N4C6COCC4C6)CC5)cc23)cc1` [Example 7, 1-[2-(4-{5-[(7S)-7-{3-Oxa-6-azabicyclo[3.1.1]heptan-6-yl}-6,7,8,9-tetrahydro-5H-benzo[7]annulen-2-yl]-1H-pyrrolo[2,3-b]pyridin-3-yl}phenyl)pyridin-3-yl]pyrrolidin-2-one], the IC50 at recombinant human MER is 100 to 1000 nM; on recombinant human TYRO3 it was less than 100 nM.

Regarding `CC(C)(O)c1cccnc1-c1ccc(-c2n[nH]c3ncc(-c4ccc5c(c4)CC[C@@H](N4C6COCC4C6)CC5)cc23)cc1` [Example 10, 2-[2-(4-{5-[(7S)-7-{3-Oxa-6-azabicyclo[3.1.1]heptan-6-yl}-6,7,8,9-tetrahydro-5H-benzo[7]annulen-2-yl]-1H-pyrazolo[3,4-b]pyridin-3-yl}phenyl)pyridin-3-yl]propan-2-ol], the IC50 is 100 to 1000 nM at recombinant human MER and less than 100 nM on recombinant human TYRO3.

Turning to `CN(C)C(=O)c1ccccc1-c1ccc(-c2n[nH]c3ncc(-c4ccc5c(c4)CC[C@@H](N4C6COCC4C6)CC5)cc23)cc1` [Example 12, N,N-Dimethyl-4′-{5-[(7S)-7-{3-oxa-6-azabicyclo[3.1.1]heptan-6-yl}-6,7,8,9-tetrahydro-5H-benzo[7]annulen-2-yl]-2H-pyrazolo[3,4-b]pyridin-3-yl}-[1,1′-biphenyl]-2-carboxamide], the IC50 on recombinant human MER and at recombinant human TYRO3 was 100 to 1000 nM throughout.

For the molecule `Cn1nncc1-c1ccc(-c2n[nH]c3ncc(-c4ccc5c(c4)CC[C@@H](N4C6COCC4C6)CC5)cc23)cc1` [Example 13, 6-[(7S)-2-{3-[4-(1-Methyl-1H-1,2,3-triazol-5-yl)phenyl]-1H-pyrazolo[3,4-b]pyridin-5-yl}-6,7,8,9-tetrahydro-5H-benzo[7]annulen-7-yl]-3-oxa-6-azabicyclo[3.1.1]heptane], the IC50 on recombinant human MER and at recombinant human TYRO3 was greater than 1000 nM throughout.

On to `Cc1nn(C)nc1-c1ccc(-c2n[nH]c3ncc(-c4ccc5c(c4)CC[C@@H](N4C6COCC4C6)CC5)cc23)cc1` [Example 14, 6-[(7S)-2-{3-[4-(2,5-Dimethyl-2H-1,2,3-triazol-4-yl)phenyl]-1H-pyrazolo[3,4-b]pyridin-5-yl}-6,7,8,9-tetrahydro-5H-benzo[7]annulen-7-yl]-3-oxa-6-azabicyclo[3.1.1]heptane], for which the IC50 at recombinant human MER was 100 to 1000 nM; at recombinant human TYRO3 it was less than 100 nM.

In the case of `CC(C)(C#N)c1cccnc1-c1ccc(-c2c[nH]c3ncc(-c4ccc5c(c4)CC[C@@H](N4C6COCC4C6)CC5)cc23)cc1` [Example 21, 2-Methyl-2-[2-[4-[5-[(7S)-7-(3-oxa-6-azabicyclo[3.1.1]heptan-6-yl)-6,7,8,9-tetrahydro-5H-benzo[7]annulen-3-yl]-1H-pyrrolo[2,3-b]pyridin-3-yl]phenyl]pyridin-3-yl]propanenitrile], the IC50 on recombinant human MER was 100 to 1000 nM; on recombinant human TYRO3, less than 100 nM.

`OC1(c2cccnc2-c2ccc(-c3c[nH]c4ncc(-c5ccc6c(c5)CC[C@@H](N5C7COCC5C7)CC6)cc34)cc2)CCC1` [Example 22, 1-[2-[4-[5-[(7S)-7-(3-Oxa-6-azabicyclo[3.1.1]heptan-6-yl)-6,7,8,9-tetrahydro-5H-benzo[7]annulen-3-yl]-1H-pyrrolo[2,3-b]pyridin-3-yl]phenyl]pyridin-3-yl]cyclobutan-1-ol]: the IC50 on recombinant human MER and on recombinant human TYRO3 was less than 100 nM each time.

Consider `Cc1nc(-c2ccc(-c3n[nH]c4ncc(-c5ccc6c(c5)CC[C@@H](N5C7COCC5C7)CC6)cc34)cc2)n(C)n1` [Example 23, 6-[(7S)-2-{3-[4-(1,3-Dimethyl-1H-1,2,4-triazol-5-yl)phenyl]-1H-pyrazolo[3,4-b]pyridin-5-yl}-6,7,8,9-tetrahydro-5H-benzo[7]annulen-7-yl]-3-oxa-6-azabicyclo[3.1.1]heptane], for which the IC50 is 100 to 1000 nM on recombinant human MER and less than 100 nM at recombinant human TYRO3.

Regarding `Cc1cccnc1-c1ccc(-c2n[nH]c3ncc(-c4ccc5c(c4)CC[C@@H](N4C6COCC4C6)CC5)cc23)nc1` [Example 26, 3-Methyl-6′-{5-[(7S)-7-{3-oxa-6-azabicyclo[3.1.1]heptan-6-yl}-6,7,8,9-tetrahydro-5H-benzo[7]annulen-2-yl]-1H-pyrazolo[3,4-b]pyridin-3-yl}-2,3′-bipyridine], the IC50 at recombinant human MER and on recombinant human TYRO3 was 100 to 1000 nM each time.
